Read-outs that look alike come from different tables or passages of the source.
Experiments:
AktK = AktK (Homo sapiens, UniProt P31749); assay: Luciferase-coupled chemiluminescence kinase assay (ATP consumption); assay type: biochemical; settings: read-out: AKT-1 IC50
Procedure, shortened: (§1)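 Activity is read as ATP depletion: luciferase-luciferin reagent added after a 3 h ambient-temperature kinase reaction, with total ATP use limited to 25-60%. Before ATP addition, 2.5-5 nM kinase and compound were preincubated 30 min in Tris pH 7.5/MgCl2/TX-100/DTT buffer; […].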

p70S6K = p70S6K (Homo sapiens, UniProt P23443); assay: as above; assay type: biochemical
Sequence of p70S6K (P23443 whole entry): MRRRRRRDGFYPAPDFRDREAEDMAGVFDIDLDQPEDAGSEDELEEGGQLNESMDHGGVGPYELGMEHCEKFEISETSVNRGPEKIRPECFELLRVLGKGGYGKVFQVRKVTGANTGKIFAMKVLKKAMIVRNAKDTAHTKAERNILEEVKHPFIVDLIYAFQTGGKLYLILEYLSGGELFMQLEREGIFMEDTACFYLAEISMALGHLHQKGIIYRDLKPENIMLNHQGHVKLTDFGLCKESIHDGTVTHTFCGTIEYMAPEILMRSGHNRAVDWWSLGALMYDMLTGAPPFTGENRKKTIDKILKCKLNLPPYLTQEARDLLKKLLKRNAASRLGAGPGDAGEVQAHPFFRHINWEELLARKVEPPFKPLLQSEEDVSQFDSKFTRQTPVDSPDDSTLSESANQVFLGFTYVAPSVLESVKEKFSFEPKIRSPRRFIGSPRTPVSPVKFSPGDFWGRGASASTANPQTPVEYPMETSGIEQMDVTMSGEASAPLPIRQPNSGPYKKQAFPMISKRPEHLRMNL
Procedure, shortened: as §1

Sequence of AktK (P31749 whole entry): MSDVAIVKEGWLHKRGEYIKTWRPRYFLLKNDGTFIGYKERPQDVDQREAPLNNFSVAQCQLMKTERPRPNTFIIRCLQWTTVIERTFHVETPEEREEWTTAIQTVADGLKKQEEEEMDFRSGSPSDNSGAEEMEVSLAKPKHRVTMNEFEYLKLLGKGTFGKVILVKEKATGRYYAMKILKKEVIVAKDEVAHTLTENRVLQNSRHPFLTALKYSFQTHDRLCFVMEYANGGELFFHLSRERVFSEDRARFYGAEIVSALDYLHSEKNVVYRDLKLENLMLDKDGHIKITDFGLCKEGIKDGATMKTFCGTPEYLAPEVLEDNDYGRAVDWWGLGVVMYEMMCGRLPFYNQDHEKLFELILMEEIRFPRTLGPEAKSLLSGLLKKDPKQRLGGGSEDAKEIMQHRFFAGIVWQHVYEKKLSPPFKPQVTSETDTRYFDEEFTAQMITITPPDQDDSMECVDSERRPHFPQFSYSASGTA

IC50 (AktK; Table 1, class symbols per key) | IC50 (p70S6K; Table 1, class symbols per key) | IC50 (AktK) | IC50 (p70S6K) | SMILES
100 to 1000 nM | < 100 nM |  |  | CON(C)C(=O)c1cc(NCCN2CCCC2)c(C)c(N2CCN(c3ncnc4[nH]nc(Br)c34)CC2)c1 [Entry 249, 3-[4-(3-bromo-1H-pyrazolo[3,4-d]pyrimidin-4-yl)piperazin-1-yl]-N,4-dimethyl-N-(methyloxy)-5-[(2-pyrrolidin-1-ylethyl)amino]benzamide]
< 100 nM | < 100 nM |  |  | Cc1c(OCC2CCN(C)CC2)cc(Cl)cc1N1CCN(c2ncnc3[nH]nc(Br)c23)CC1 [Entry 88, 3-bromo-4-[4-(5-chloro-2-methyl-3-{[(1-methyl-piperidin-4-yl)methyl]oxy}phenyl)piperazin-1-yl]-1H-pyrazolo[3,4-d]pyrimidine]
100 to 1000 nM | < 100 nM |  |  | CCc1n[nH]c2ncnc(N3CCN(c4cc(Cl)cc(OCC5CCN(C)CC5)c4C)CC3)c12 [Entry 31, 4-[4-(5-chloro-2-methyl-3-{[(1-methylpiperidin-4-yl)methyl]oxy}phenyl)piperazin-1-yl]-3-ethyl-1H-pyrazolo[3,4-d]pyrimidine]
≥ 10000 nM | 100 to 1000 nM |  |  | Cc1ccc(N2CCN(c3ncnc4[nH]nc(Br)c34)CC2)cc1C [Entry 96, 3-bromo-4-[4-(3,4-dimethylphenyl)piperazin-1-yl]-1H-pyrazolo[3,4-d]pyrimidine]
< 100 nM | < 100 nM |  |  | Cc1c(NCCN(C)C)cc(Cl)cc1N1CCN(c2ncnc3[nH]nc(Br)c23)CC1 [Entry 148, N′-{3-[4-(3-bromo-1H-pyrazolo[3,4-d]pyrimidin-4-yl)piperazin-1-yl]-5-chloro-2-methylphenyl}-N,N-dimethylethane-1,2-diamine]
≥ 10000 nM | < 100 nM |  |  | CCc1n[nH]c2ncnc(N3CCN(c4cc(Cl)cc(OC)c4C)CC3)c12 [Entry 126, 4-{4-[5-chloro-2-methyl-3-(methyloxy)phenyl]piperazin-1-yl}-3-ethyl-1H-pyrazolo[3,4-d]pyrimidine]
< 100 nM | < 100 nM |  |  | Brc1cc(NCCN2CCCC2)cc(N2CCN(c3ncnc4[nH]nc(Br)c34)CC2)c1 [Entry 265, 3-bromo-5-[4-(3-bromo-1H-pyrazolo[3,4-d]pyrimi-din-4-yl)piperazin-1-yl]-N-(2-pyrrolidin-1-ylethyl)aniline]
< 100 nM | < 100 nM |  |  | CCc1n[nH]c2ncnc(N3CCN(c4cc(OCC(F)(CF)CF)cc(NCCN5CCCC5)c4C)CC3)c12 [Entry 256, 5-{[2,3-difluoro-2-(fluoromethyl)propyl]oxy}-3-[4-(3-ethyl-1H-pyrazolo[3,4-d]pyrimidin-4-yl)pipera-zin-1-yl]-2-methyl-N-(2-pyrrolidin-1-ylethyl)aniline]
< 100 nM | < 100 nM |  |  | Cc1c(CCCN2CCCC2)cc(OCC(C)C)cc1N1CCN(c2ncnc3[nH]nc(Br)c23)CC1 [Entry 240, 3-bromo-4-{4-[2-methyl-5-[(2-methylpropyl)oxy]-3-(3-pyrrolidin-1-ylpropyl)phenyl]piperazin-1-yl}-1H-pyrazolo[3,4-d]pyrimidine]
 |  | 1000 to 10000 nM | 100 to 1000 nM | Cc1ccc(Cl)cc1N1CCN(c2ncnc3[nH]nc(C#CCN4CCCC4)c23)CC1 [Entry 397, 4-[4-(5-chloro-2-methylphenyl)piperazin-1-yl]-3-(3-pyrrolidin-1-ylprop-1-yn-1-yl)-1H-pyrazolo[3,4-d]pyrimidine]
1000 to 10000 nM | < 100 nM |  |  | Cc1c(OCCN2CCCC2)cc(Cl)cc1N1CCN(c2ncnc3[nH]nc(C4CC4)c23)CC1 [Entry 160, 4-(4-{5-chloro-2-methyl-3-[(2-pyrrolidin-1-ylethyl)oxy]phenyl}piperazin-1-yl)-3-cyclopropyl-1H-pyrazolo[3,4-d]pyrimidine]
100 to 1000 nM | < 100 nM |  |  | CCc1n[nH]c2ncnc(N3CCN(c4cc(Br)cc(N)c4C)CC3)c12 [Entry 165, 5-bromo-3-[4-(3-ethyl-1H-pyrazolo[3,4-d]pyrimidin-4-yl)piperazin-1-yl]-2-methylaniline]

Second part, the compound before the results:

SMILES | IC50 (AktK; Table 1, class symbols per key) | IC50 (p70S6K; Table 1, class symbols per key) | IC50 (AktK) | IC50 (p70S6K)
CCNC(=O)COc1cccc(N2CCN(c3ncnc4[nH]nc(Br)c34)CC2)c1 [Entry 139, 2-({3-[4-(3-bromo-1H-pyrazolo[3,4-d]pyrimidin-4-yl)piperazin-1-yl]phenyl}oxy)-N-ethylacetamide] | 1000 to 10000 nM | < 100 nM |  | 
Cc1ccc(Cl)cc1N1CCN(c2ncnc3[nH]nc(-c4cccc(C(=O)O)c4)c23)CC1 [Entry 340, 3-{4-[4-(5-chloro-2-methylphenyl)piperazin-1-yl]-d1H-pyrazolo[3,4-]pyrimidin-3-yl}benzoic acid] |  |  | 1000 to 10000 nM | 1000 to 10000 nM
COc1nccnc1N1CCN(c2ncnc3[nH]nc(Br)c23)CC1 [Entry 133, 3-bromo-4-{4-[3-(methyloxy)pyrazin-2-yl]pipera-zin-1-yl}-1H-pyrazolo[3,4-d]pyrimidine] | ≥ 10000 nM | 100 to 1000 nM |  | 
FC(F)(F)c1ccnc(N2CCN(c3ncnc4[nH]nc(Br)c34)CC2)n1 [Entry 118, 3-bromo-4-{4-[4-(trifluoromethyl)pyrimidin-2-yl]piperazin-1-yl}-1H-pyrazolo[3,4-d]pyrimidine] | ≥ 10000 nM | 100 to 1000 nM |  | 
N#Cc1ccc(N2CCN(c3ncnc4[nH]nc(Br)c34)CC2)cc1 [Entry 123, 4-[4-(3-bromo-1H-pyrazolo[3,4-d]pyrimidin-4-yl)piperazin-1-yl]benzonitrile] | ≥ 10000 nM | < 100 nM |  | 
CCc1n[nH]c2ncnc(N3CCN(c4cccc(Cl)c4)C(C(=O)NC4CCN(C)CC4)C3)c12 (stereo not shown) [Entry 382, 1-(3-chlorophenyl)-4-(3-ethyl-1H-pyrazolo[3,4-d]pyrimidin-4-yl)-N-(1-methylpiperidin-4-yl)piperazine-2-carboxamide] |  |  | ≥ 10000 nM | 1000 to 10000 nM
COc1ccccc1-c1n[nH]c2ncnc(N3CCN(c4cc(Cl)ccc4C)CC3)c12 [Entry 363, 4-[4-(5-chloro-2-methylphenyl)piperazin-1-yl]-3-[2-(methyloxy)phenyl]-1H-pyrazolo[3,4-d]pyrimidine] |  |  | 1000 to 10000 nM | 100 to 1000 nM
CN(C)CCOc1nccnc1N1CCN(c2ncnc3[nH]nc(Br)c23)CC1 [Entry 119, 2-({3-[4-(3-bromo-1H-pyrazolo[3,4-d]pyrimidin-4-yl)piperazin-1-yl]pyrazin-2-yl}oxy)-N,N-dimethylethanamine] | 1000 to 10000 nM | 100 to 1000 nM |  | 
Cc1ccc(C(=O)NCc2ccccc2)cc1N1CCN(c2ncnc3[nH]nc(Br)c23)C[C@@H]1C [Entry 178, 3-[(2S)-4-(3-bromo-1H-pyrazolo[3,4-d]pyrimidin-4-yl)-2-methylpiperazin-1-yl]-4-methyl-N-(phenylmethyl)benzamide] | 1000 to 10000 nM | < 100 nM |  | 
Cc1c(NCCN2CCCC2)cc(OCC2CCCO2)cc1N1CCN(c2ncnc3[nH]nc(Br)c23)CC1 (stereo not shown) [Entry 222, 3-[4-(3-bromo-1H-pyrazolo[3,4-d]pyrimidin-4-yl)piperazin-1-yl]-2-methyl-N-(2-pyrrolidin-1-ylethyl)-5-[(tetrahydrofuran-2-ylmethyl)oxy]aniline] | < 100 nM | < 100 nM |  | 
N#Cc1ccccc1N1CCN(c2ncnc3[nH]nc(Br)c23)CC1 [Entry 122, 2-[4-(3-bromo-1H-pyrazolo[3,4-d]pyrimidin-4-yl)piperazin-1-yl]benzonitrile] | ≥ 10000 nM | 100 to 1000 nM |  | 
Cc1ccccc1N1CCN(c2ncnc3[nH]cnc23)CC1 [Entry 315, 6-[4-(2-methylphenyl)piperazin-1-yl]-9H-purine] |  |  | ≥ 10000 nM | 100 to 1000 nM
Brc1n[nH]c2ncnc(N3CCN(c4cnccn4)CC3)c12 [Entry 107, 3-bromo-4-(4-pyrazin-2-ylpiperazin-1-yl)-1H-pyrazolo[3,4-d]pyrimidine] | ≥ 10000 nM | 100 to 1000 nM |  | 
CCc1n[nH]c2ncnc(N3CCN(c4cccc(Cl)c4)CC3C(=O)OC)c12 (stereo not shown) [Entry 349, methyl 4-(3-chlorophenyl)-1-(3-ethyl-1H-pyrazolo[3,4-d]pyrimidin-4-yl)piperazine-2-carboxylate] |  |  | ≥ 10000 nM | 1000 to 10000 nM
Cc1ccc(-c2ccccc2OCCN2C(=O)CCC2=O)cc1N1CCN(c2ncnc3[nH]nc(Br)c23)CC1 [Entry 281, 1-[2-({3′-[4-(3-bromo-1H-pyrazolo[3,4-d]pyrimidin-4-yl)piperazin-1-yl]-4′-methylbiphenyl-2-yl}oxy)ethyl]pyrrolidine-2,5-dione] | < 100 nM | < 100 nM |  | 
Cc1c(NCCN2CCCC2)cc(C#CC(C)(C)C)cc1N1CCN(c2ncnc3[nH]nc(Br)c23)CC1 [Entry 238, 3-[4-(3-bromo-1H-pyrazolo[3,4-d]pyrimidin-4-yl)piperazin-1-yl]-5-(3,3-dimethylbut-1-yn-1-yl)-2-methyl-N-(2-pyrrolidin-1-ylethyl)aniline] | < 100 nM | < 100 nM |  | 
Cc1ccc(Cl)cc1N1CCN(c2ncnc3[nH]nc(-c4ccc(Oc5ccccc5)cc4)c23)CC1 [Entry 358, 4-[4-(5-chloro-2-methylphenyl)piperazin-1-yl]-3-[4-(phenyloxy)phenyl]-1H-pyrazolo[3,4-d]pyrimidine] |  |  | 1000 to 10000 nM | 100 to 1000 nM
CCc1n[nH]c2ncnc(N3CCN(c4cc(F)cc(NCCN5CCCC5)c4C)CC3)c12 [Entry 78, 3-[4-(3-ethyl-1H-pyrazolo[3,4-d]pyrimidin-4-yl)piperazin-1-yl]-5-fluoro-2-methyl-N-(2-pyrrolidin-1-ylethyl)aniline] | 1000 to 10000 nM | < 100 nM |  | 
Cc1ccc(Cl)cc1N1CCN(c2ncnc3[nH]nc(CC4CCNCC4)c23)CC1 [Entry 394, 4-[4-(5-chloro-2-methylphenyl)piperazin-1-yl]-3-(piperidin-4-ylmethyl)-1H-pyrazolo[3,4-d]pyrimidine] |  |  | 1000 to 10000 nM | 1000 to 10000 nM
Cc1ccc(Cl)cc1N1CCN(c2ncnc3[nH]nc(-c4ccc5c(c4)OCO5)c23)CC1 [Entry 337, 3-(1,3-benzodioxol-5-yl)-4-[4-(5-chloro-2-methyl-phenyl)piperazin-1-yl]-1H-pyrazolo[3,4-d]pyrimidine] |  |  | 1000 to 10000 nM | 100 to 1000 nM

Reference: patent publication US8076338B2, “Kinase modulators and methods of use” (Exelixis, Inc., priority 2004, dated 2011)
